# Columns and labels:
# Type in all cases: cell-based
# Design in all cases: dose or concentration left out as unconfirmed
# [1] = tested on: breast tumor cell line BT-20; experiment: Viability assay, Trypan blue exclusion, breast tumor cell line BT-20; settings: Homo sapiens, BT-20, 96 hours, read-out: percent cell death (% Death), BT20
# Procedure: (§1) The effect of the sulfones on normal fibroblasts and on tumor cells of prostate, colon, lung and breast origin was examined utilizing the following cell lines: prostate tumor cell line DU-145; colorectal carcinoma cell line DLD-1; non-small cell lung carcinoma cell line H157; and breast tumor cell line BT-20. BT-20 is an estrogen-unresponsive cell line. NIH/3T3 and HFL are normal murine and human fibroblasts, respectively. BT-20, DLD-1 and H157 were grown in Dulbecco's modified Eagle's medium (DMEM) containing 10% fetal bovine serum supplemented with penicillin and streptomycin. DU145 was cultured in RPMI with 10% fetal bovine serum containing penicillin and streptomycin. NIH3T3 and HFL cells were grown in DMEM containing 10% calf serum supplemented with penicillin and streptomycin. All cell cultures were maintained at 37° C. in a humidified atmosphere of 5% CO2.
# (§2) Cells were treated with test compound […] concentration and cell viability was determined after 96 hours by the Trypan blue exclusion method. Activity for each compound is reported as a range of cell induced death (% Death) with the lowest activity in the range of 5-10%.
# [2] = tested on: non-small cell lung carcinoma cell line H157; experiment: Viability assay, Trypan blue exclusion, non-small cell lung carcinoma cell line H157; settings: Homo sapiens, NCI-H157, 96 hours, read-out: percent cell death (% Death), H157
# Procedure: as §1, §2
# [3] = tested on: prostate tumor cell line DU-145; experiment: Viability assay, Trypan blue exclusion, prostate tumor cell line DU-145; settings: Homo sapiens, DU-145, 96 hours, read-out: percent cell death (% Death), DU145
# Procedure: as §1, §2
# [4] = tested on: colorectal carcinoma cell line DLD-1; experiment: Viability assay, Trypan blue exclusion, colorectal carcinoma cell line DLD-1; settings: Homo sapiens, DLD-1, 96 hours, read-out: percent cell death (% Death), DLD-1
# Procedure: as §1, §2
SMILES,cytotoxicity [1],cytotoxicity [2],cytotoxicity [3],cytotoxicity [4]
"O=[N+]([O-])c1cc(/C=C/S(=O)(=O)Cc2ccc(Cl)cc2Cl)cs1 [Example 57, (E)-2-Nitro-4-thiopheneethenyl-2,4-dichlorobenzylsulfone]",5 to 10%,5 to 10%,10 to 15%,10 to 15%
"COc1ccc(CS(=O)(=O)/C=C/c2csc([N+](=O)[O-])c2)cc1 [Example 58, (E)-2-Nitro-4-thiopheneethenyl-4-methoxybenzylsulfone]",40 to 50%,> 80%,50 to 60%,> 80%
"O=S(=O)(/C=C/c1cccc2ccccc12)Cc1ccc(F)cc1 [Example 62, (E)-1-Naphthaleneethenyl-4-fluorobenzylsulfone]",5 to 10%,5 to 10%,5 to 10%,5 to 10%
"O=S(=O)(/C=C/c1ccc2ccccc2c1)Cc1ccc(F)cc1 [Example 63, (E)-2-Naphthaleneethenyl-4-fluorobenzylsulfone]",5 to 10%,5 to 10%,5 to 10%,5 to 10%
"O=S(=O)(/C=C/c1cccc2ccccc12)Cc1ccc(Cl)cc1 [Example 64, (E)-1-Naphthaleneethenyl-4-chlorobenzylsulfone]",10 to 15%,10 to 15%,10 to 15%,10 to 15%
"O=S(=O)(/C=C/c1ccc2ccccc2c1)Cc1ccc(Cl)cc1 [Example 65, (E)-2-Naphthaleneethenyl-4-chlorobenzylsulfone]",5 to 10%,5 to 10%,5 to 10%,5 to 10%
"O=S(=O)(/C=C/c1cccc2ccccc12)Cc1ccc(Br)cc1 [Example 66, (E)-1-Naphthaleneethenyl-4-bromobenzylsulfone]",10 to 15%,10 to 15%,10 to 15%,10 to 15%
"O=S(=O)(/C=C/c1ccc2ccccc2c1)Cc1ccc(Br)cc1 [Example 67, (E)-2-Naphthaleneethenyl-4-bromobenzylsulfone]",5 to 10%,5 to 10%,5 to 10%,5 to 10%
"O=S(=O)(/C=C/c1ccc(F)cc1)Cc1cccc2ccccc12 [Example 68, (E)-4-Fluorostyryl-1-(naphthylmethyl)sulfone]",5 to 10%,5 to 10%,5 to 10%,5 to 10%
"O=S(=O)(/C=C/c1ccc(Cl)cc1)Cc1cccc2ccccc12 [Example 69, (E)-4-Chlorostyryl-1-(naphthylmethyl)sulfone]",5 to 10%,5 to 10%,5 to 10%,5 to 10%
"O=S(=O)(/C=C/c1ccc(Br)cc1)Cc1cccc2ccccc12 [Example 70, (E)-4-Bromostyryl-1-(naphthylmethyl)sulfone]",5 to 10%,5 to 10%,5 to 10%,5 to 10%
"O=[N+]([O-])c1ccc(/C=C/S(=O)(=O)Cc2cccc3ccccc23)cc1 [Example 73, (E)-4-Nitrostyryl-1-(naphthylmethyl)sulfone]",5 to 10%,10 to 15%,5 to 10%,5 to 10%
"O=S(=O)(/C=C/c1c2ccccc2cc2ccccc12)Cc1ccc(F)cc1 [Example 74, (E)-9-Anthraceneethenyl-4-fluorobenzylsulfone]",50 to 60%,> 80%,40 to 50%,50 to 60%
"O=S(=O)(/C=C/c1c2ccccc2cc2ccccc12)Cc1ccc(Br)cc1 [Example 76, (E)-9-Anthraceneethenyl-4-bromobenzylsulfone]",50 to 60%,40 to 50%,50 to 60%,40 to 50%

# Reference: US6599932B1, “Alpha, beta-unsaturated sulfones for treating proliferative disorders” (Temple University-Of The Commonwealth System of Higher …, priority 2000, dated 2003)
